Test results as given in the NIST ThermoML archive (doi:10.1016/j.tca.2011.01.001).
Numbers after ± are expanded uncertainties.

O=C(O)c1ccc(O)c(O)c1 [3,4-dihydroxybenzoic acid]
Settings | vapor or sublimation pressure [kPa]
381.8 K, Crystal, Torsion effusion method | 6e-05 ± 3e-06
383 K, Crystal, Torsion effusion method | 6.7e-05 ± 3e-06
384.5 K, Crystal, Torsion effusion method | 7.7e-05 ± 4e-06
385.6 K, Crystal, Torsion effusion method | 8.7e-05 ± 4e-06
387.2 K, Crystal, Torsion effusion method | 0.000104 ± 5e-06
388.6 K, Crystal, Torsion effusion method | 0.000117 ± 6e-06
390 K, Crystal, Torsion effusion method | 0.000143 ± 7e-06
391.4 K, Crystal, Torsion effusion method | 0.00016 ± 8e-06
392.8 K, Crystal, Torsion effusion method | 0.000191 ± 1e-05
394.2 K, Crystal, Torsion effusion method | 0.000216 ± 1.1e-05
395.4 K, Crystal, Torsion effusion method | 0.000251 ± 1.3e-05
396.9 K, Crystal, Torsion effusion method | 0.000286 ± 1.4e-05
398.3 K, Crystal, Torsion effusion method | 0.00033 ± 1.7e-05
399.8 K, Crystal, Torsion effusion method | 0.000377 ± 1.9e-05
401.2 K, Crystal, Torsion effusion method | 0.000465 ± 2.3e-05
402.6 K, Crystal, Torsion effusion method | 0.000533 ± 2.7e-05
404 K, Crystal, Torsion effusion method | 0.00061 ± 3.1e-05
405.4 K, Crystal, Torsion effusion method | 0.000701 ± 3.5e-05
406.8 K, Crystal, Torsion effusion method | 0.000804 ± 4e-05
407.7 K, Crystal, Torsion effusion method | 0.000876 ± 4.4e-05
408.9 K, Crystal, Torsion effusion method | 0.000997 ± 5e-05
485.2 K, Liquid, Non-isothermal TG | 0.819 ± 0.17
485.8 K, Liquid, Non-isothermal TG | 0.807 ± 0.18
486.2 K, Liquid, Non-isothermal TG | 0.892 ± 0.18
486.8 K, Liquid, Non-isothermal TG | 0.868 ± 0.18
487.2 K, Liquid, Non-isothermal TG | 0.933 ± 0.2
487.7 K, Liquid, Non-isothermal TG | 0.902 ± 0.18
488.1 K, Liquid, Non-isothermal TG | 0.974 ± 0.2
488.4 K, Liquid, Isothermal TG | 0.983 ± 0.21
488.7 K, Liquid, Non-isothermal TG | 0.967 ± 0.2
488.8 K, Liquid, Isothermal TG | 1.007 ± 0.21
489.1 K, Liquid, Non-isothermal TG | 1.005 ± 0.21
489.2 K, Liquid, Isothermal TG | 1.027 ± 0.21
489.6 K, Liquid, Isothermal TG | 1.061 ± 0.22
489.7 K, Liquid, Non-isothermal TG | 1.033 ± 0.22
490 K, Liquid, Isothermal TG | 1.074 ± 0.22
490.1 K, Liquid, Non-isothermal TG | 1.129 ± 0.23
490.4 K, Liquid, Isothermal TG | 1.092 ± 0.23
490.7 K, Liquid, Non-isothermal TG | 1.087 ± 0.23
490.8 K, Liquid, Isothermal TG | 1.129 ± 0.23
491.1 K, Liquid, Non-isothermal TG | 1.188 ± 0.25
491.2 K, Liquid, Isothermal TG | 1.153 ± 0.24
491.6 K, Liquid, Isothermal TG | 1.192 ± 0.25
491.7 K, Liquid, Non-isothermal TG | 1.162 ± 0.24
492 K, Liquid, Isothermal TG | 1.22 ± 0.26
492.2 K, Liquid, Non-isothermal TG | 1.221 ± 0.25
492.4 K, Liquid, Isothermal TG | 1.254 ± 0.26
492.7 K, Liquid, Non-isothermal TG | 1.286 ± 0.27
492.8 K, Liquid, Isothermal TG | 1.28 ± 0.27
493.1 K, Liquid, Non-isothermal TG | 1.327 ± 0.27
493.2 K, Liquid, Isothermal TG | 1.32 ± 0.27
